Measured values from the NIST ThermoML archive (doi:10.1021/je501054c).
Where “and” joins values, the source holds several entries; their conditions need not be identical. Equal values may be shown once.

Assays:
[1] = mn = molality of the nth substance listed, in mol/kg; conditions: 100 kPa, Liquid; for viscosity: Capillary tube (Ostwald / Ubbelohde) method; for mass density: Vibrating tube method
[2] = 100 kPa, Liquid; for mass density: Vibrating tube method

CCCCCn1cc[n+](C)c1.[Br-] [1-pentyl-3-methylimidazolium bromide] + CC#N
[1]
Conditions	mass density, 298.15 K [kg/m3]	mass density, 303.15 K [kg/m3]	mass density, 308.15 K [kg/m3]	mass density, 313.15 K [kg/m3]	viscosity, 298.15 K [mPa·s]
m1 = 0.03	779.11	770.63	762.52	755.09	–
m1 = 0.0301	–	–	–	–	0.3532
m1 = 0.0509	780.82	772.34	764.26	756.83	–
m1 = 0.0511	–	–	–	–	0.3605
m1 = 0.0721	782.52	774.06	765.99	758.59	–
m1 = 0.0726	–	–	–	–	0.366
m1 = 0.1016	784.87	776.42	768.38	760.99	–
m1 = 0.1026	–	–	–	–	0.3724
m1 = 0.123	786.55	778.11	770.11	762.71	–
m1 = 0.1245	–	–	–	–	0.3782
m1 = 0.1434	788.15	779.71	771.7	764.33	–
m1 = 0.1455	–	–	–	–	0.3814
m1 = 0.1628	789.62	781.22	773.22	765.86	–
m1 = 0.1655	–	–	–	–	0.3873
m1 = 0.1944	792	783.62	775.67	768.32	–
m1 = 0.1983	–	–	–	–	0.3928
m1 = 0.211	793.26	784.87	776.92	769.58	–
m1 = 0.2155	–	–	–	–	0.3975
m1 = 0.2313	794.76	786.39	778.44	771.12	–
m1 = 0.2367	–	–	–	–	0.4016

CC#N [acetonitrile]
Conditions	viscosity [mPa·s]
[2], 298.15 K, Capillary tube (Ostwald / Ubbelohde) method	0.343

[2]
Conditions	mass density
298.15 K	776.65 kg/m3
303.15 K	771.43 kg/m3 and 768.14 kg/m3
308.15 K	761.45 kg/m3 [middle of 4 runs]
313.15 K	755.34 kg/m3 [middle of 4 runs]

CCCCCCn1cc[n+](C)c1.[Cl-] [1-hexyl-3-methylimidazolium chloride] + CC#N
[1]
Conditions	mass density, 298.15 K [kg/m3]	mass density, 303.15 K [kg/m3]	mass density, 308.15 K [kg/m3]	mass density, 313.15 K [kg/m3]	viscosity, 298.15 K [mPa·s]
m1 = 0.0205	777.74	772.53	764.33	756.52	–
m1 = 0.022	–	–	–	–	0.3485
m1 = 0.041	778.81	773.62	765.43	757.67	–
m1 = 0.0461	–	–	–	–	0.3524
m1 = 0.06	779.78	774.61	766.44	758.72	–
m1 = 0.0622	–	–	–	–	0.3551
m1 = 0.0809	780.84	775.69	767.53	759.86	–
m1 = 0.0814	–	–	–	–	0.3589
m1 = 0.1002	781.8	776.66	768.53	760.89	–
m1 = 0.1057	–	–	–	–	0.3631
m1 = 0.1197	782.75	777.64	769.5	761.94	–
m1 = 0.123	–	–	–	–	0.367
m1 = 0.1374	783.62	778.51	770.4	762.83	–
m1 = 0.1423	–	–	–	–	0.3696
m1 = 0.1544	784.44	779.33	771.23	763.72	–
m1 = 0.1606	–	–	–	–	0.3741
m1 = 0.1788	785.56	780.48	772.4	764.93	–
m1 = 0.181	–	–	–	–	0.3776
m1 = 0.1969	786.4	781.33	773.26	765.84	–
m1 = 0.2045	–	–	–	–	0.3813

CCC[n+]1ccn(C)c1.[Br-] [1-methyl-3-propylimidazolium bromide] + CC#N
[1]
Conditions	mass density, 298.15 K [kg/m3]	mass density, 303.15 K [kg/m3]	mass density, 308.15 K [kg/m3]	mass density, 313.15 K [kg/m3]	viscosity, 298.15 K [mPa·s]
m1 = 0.0248	778.67	773.46	763.49	757.41	–
m1 = 0.0251	–	–	–	–	0.3488
m1 = 0.0422	–	–	–	–	0.3525
m1 = 0.0423	780.09	774.88	764.92	758.84	–
m1 = 0.0636	781.79	776.59	766.63	760.57	–
m1 = 0.0644	–	–	–	–	0.3573
m1 = 0.081	783.18	777.98	768.02	761.96	–
m1 = 0.0816	–	–	–	–	0.3607
m1 = 0.1036	784.95	779.74	769.8	763.74	–
m1 = 0.1051	–	–	–	–	0.3633
m1 = 0.123	786.44	781.24	771.31	765.27	–
m1 = 0.1245	–	–	–	–	0.3675
m1 = 0.1437	788.02	782.86	772.93	766.87	–
m1 = 0.1461	–	–	–	–	0.3724
m1 = 0.1636	789.52	784.35	774.44	768.39	–
m1 = 0.1667	–	–	–	–	0.3771
m1 = 0.1835	791.02	785.84	775.93	769.89	–
m1 = 0.1873	–	–	–	–	0.38
m1 = 0.2042	792.57	787.39	777.47	771.44	–
m1 = 0.2082	–	–	–	–	0.3844

CCCCCCn1cc[n+](C)c1.[Br-] [3-hexyl-1-methyl-1H-imidazolium bromide] + CC#N
[1]
Conditions	mass density, 298.15 K [kg/m3]	mass density, 303.15 K [kg/m3]	mass density, 308.15 K [kg/m3]	mass density, 313.15 K [kg/m3]	viscosity, 298.15 K [mPa·s]
m1 = 0.0208	778.37	773.15	763.14	754.27	–
m1 = 0.0209	–	–	–	–	0.353
m1 = 0.0449	780.33	775.12	765.12	756.27	–
m1 = 0.0451	–	–	–	–	0.3625
m1 = 0.0648	781.93	776.74	766.75	757.91	–
m1 = 0.0653	–	–	–	–	0.367
m1 = 0.0817	783.29	778.1	768.12	759.29	–
m1 = 0.0824	–	–	–	–	0.372
m1 = 0.1001	784.72	779.55	769.58	760.76	–
m1 = 0.1011	–	–	–	–	0.3774
m1 = 0.124	786.57	781.42	771.48	762.66	–
m1 = 0.1255	–	–	–	–	0.3842
m1 = 0.1424	788	782.85	772.92	764.1	–
m1 = 0.1445	–	–	–	–	0.3882
m1 = 0.1649	789.72	784.57	774.66	765.86	–
m1 = 0.1676	–	–	–	–	0.3937
m1 = 0.1832	791.1	785.97	776.06	767.28	–
m1 = 0.1866	–	–	–	–	0.3982
m1 = 0.2011	792.44	787.33	777.41	768.63	–
m1 = 0.2052	–	–	–	–	0.4022
